Experimental data published in paper PMC2758355 (Chemical research in toxicology, 2009).
Entries after “also recorded” stand apart in the source; their conditions may differ.

Assays:
[1] = test system: ER; conditions: cited from earlier work
[2] = molecular target: T1, ERα (Homo sapiens, UniProt P03372); test: Competition binding with [3H]estradiol in MCF-7 cells; conditions: for activity in in vitro assays (result in words): binding and transactivation assays, experimental testing; for Ki: competition with radioactive-labeled estradiol
T1 sequence (P03372 1-595): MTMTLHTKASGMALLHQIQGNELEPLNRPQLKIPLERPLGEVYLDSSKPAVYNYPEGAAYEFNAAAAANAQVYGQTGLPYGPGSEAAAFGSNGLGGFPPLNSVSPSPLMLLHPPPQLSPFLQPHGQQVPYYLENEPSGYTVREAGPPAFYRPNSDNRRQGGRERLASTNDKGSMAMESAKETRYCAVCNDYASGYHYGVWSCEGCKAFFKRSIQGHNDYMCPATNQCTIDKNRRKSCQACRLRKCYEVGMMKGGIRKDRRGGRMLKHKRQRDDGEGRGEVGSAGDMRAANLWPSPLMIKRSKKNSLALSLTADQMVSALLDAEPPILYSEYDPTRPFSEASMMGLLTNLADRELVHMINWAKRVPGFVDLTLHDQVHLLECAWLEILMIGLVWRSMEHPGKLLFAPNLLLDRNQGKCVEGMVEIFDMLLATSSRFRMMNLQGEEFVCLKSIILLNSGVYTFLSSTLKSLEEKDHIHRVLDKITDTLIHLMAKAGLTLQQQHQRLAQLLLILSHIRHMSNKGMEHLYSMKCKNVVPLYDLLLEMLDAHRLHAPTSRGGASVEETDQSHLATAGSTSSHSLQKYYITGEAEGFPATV

[3] = molecular target: T1, ERα; conditions: cited from earlier work
[4] = established by JECFA; ref www.fao.org/ag/agn/jecfa-additives; cited from earlier work

| Structure (SMILES) | binding to ER (result in words) [1] | activity in in vitro assays (result in words) [2] | also measured |
| --- | --- | --- | --- |
| CCCCOC(=O)c1ccc(O)cc1 [butyl p-hydroxybenzoate] | known to bind to ER; also recorded: weak binders | – | – |
| COc1cc(CNC(=O)CCCC/C=C/C(C)C)ccc1O [capsaicin] | – | inactive | – |
| CC(Cc1ccc(O)c(O)c1)C(C)Cc1ccc(O)c(O)c1 (centres unmarked) [nordihydroguaiaretic acid] | known to bind to ER; also recorded: nanomolar binding affinity/potency | – | – |
| CCCCCCCCOC(=O)c1cc(O)c(O)c(O)c1 [octyl gallate] | – | only the propyl gallate resulted active | – |
| CCCOC(=O)c1ccc(O)cc1 [propyl p-hydroxybenzoate] | known to bind to ER | – | – |
| CCCOC(=O)c1cc(O)c(O)c(O)c1 [propyl gallate] | – | active | Ki ([2]; binding constant, Figure 4a): 54 nM; Ki ([2]; pKi): 40.7 nM; transactivation activity (result in words) [3]: high micromolar range; acceptable daily intake [4]: 0−1.4 mg/kg |
| COc1cc(/C=C/C(=O)CC(=O)/C=C/c2ccc(O)c(OC)c2)ccc1O [curcumin] | – | – | binding to the receptor in the competition assay (result in words) ([2]; competitor 1 nM to 0.25 μM): lack binding activity |
